In publication PMC7894407, “Rapid conversion of isoprene photooxidation products in terrestrial plants” (Communications earth & environment, 2020):

What was measured:
[1] = test system: T1, poplar AOR (EC 1.3.1.74), alkenal/one oxidoreductase; experiment: NADPH consumption at A340 nm, NADPH varied, leaf protein extract; type: biochemical, Populus x canescens; settings: co-substrate MVK; apparent in vitro, crude leaf extract; 50 mM Tris/HCl, 20 mM MgCl2, 5% glycerol, 2 mM DTT; read-out: Michaelis-Menten constant
T1 construct: gene AORchl; native enzyme in desalted (Sephadex G-25 PD-10) crude leaf protein extract, not purified; AORchl predominantly expressed in leaf, AORcyt-II in stem; active isoenzyme not determined

[2] = test system: T1, poplar AOR (EC 1.3.1.74), alkenal/one oxidoreductase; experiment: NADPH consumption at A340 nm, MVK varied, leaf protein extract; type: biochemical, Populus x canescens; settings: co-substrate NADPH; apparent in vitro, crude leaf extract; 50 mM Tris/HCl, 20 mM MgCl2, 5% glycerol, 2 mM DTT; read-out: Michaelis-Menten constant

NC(=O)C1=CN([C@@H]2O[C@H](COP(=O)(O)OP(=O)(O)OC[C@H]3O[C@@H](n4cnc5c(N)ncnc54)[C@H](OP(=O)(O)O)[C@@H]3O)[C@@H](O)[C@H]2O)C=CC1 [NADPH]
Km [1]: 0.049 mM

C=CC(C)=O [MVK]
Km [2]: 14.1 mM
